Reference: patent EP0761667A1, “Heterocyclic substituted pseudopeptides” (BAYER AG, priority 1995, dated 1997)
Like-named read-outs stand apart in the source and are kept apart here.

Legend:
HIV = HIV infection in cell culture (PBL), microscopic evaluation of syncytia formation; assay type: cell-based; details: HIV-infected normal human blood lymphocytes (PBL's), day 3 to 6 after infection; for PBL IC95: suppression of virus-induced syncytia; for IC50: Human immunodeficiency virus 1, Lymphocyte, 72 h, 50% suppression of virus-induced syncytia
Method: HIV-Infektion in Zellkultur
Der HIV-Test wurde mit geringen Modifikationen nach der Methode von Pauwels et al. [vgl. Journal of Virological Methods 20, (1988), 309-321] durchgeführt.
Normale menschliche Blutlymphozyten (PBL's) wurden über Ficoll-Hypaque angereichert und im RPMI 1640, 20% fötales Kälberserum mit Phytohaemagglutinin (90 µg/ml) und Interleukin-2 (40 U/ml) stimuliert. Zur Infektion mit dem infektiösen HIV wurden PBL's pelletiert und das Zellpellet wurde anschließend in 1 ml HIV-Virusadsorptionslösung suspendiert und 1 Stunde bei 37°C inkubiert.
Die Virusadsorptionslösung wurde zentrifugiert und das infizierte Zellpellet in Wachstumsmedium aufgenommen, so daß 1 x 10^5 Zellen pro ml eingestellt waren. Die derart infizierten Zellen wurden zu 1 x 10^4 Zellen/Napf in die Näpfe von 96er Mikrotiterplatten pipettiert.
Die erste vertikale Reihe der Mikrotiterplatte enthielt nur Wachstumsmedium und Zellen, die nicht infiziert, aber ansonsten genauso wie oben beschrieben, behandelt worden waren (Zellkontrolle). Die zweite vertikale Reihe der Mikrotiterplatte erhielt nur HIV-infizierte Zellen (Viruskontrolle) in Wachstumsmedium. Die übrigen Näpfe enthielten die erfindungsgemäßen Verbindungen in unterschiedlichen Konzentrationen, ausgehend von den Näpfen der 3. vertikalen Reihe der Mikrotiterplatte, von der die Prüfsubstanzen in 2er Schritten 2^10fach verdünnt wurden.
Die Testansätze wurden so lange bei 37°C inkubiert, bis in der unbehandelten Viruskontrolle die für das HIV typische Syncytienbildung auftrat (zwischen Tag 3 und 6 nach Infektion), die dann mikroskopisch ausgewertet wurde. In der unbehandelten Viruskontrolle resultierten unter diesen Testbedingungen etwa 20 Syncytien, während die unbehandelte Zellkontrolle keine Syncytien aufwies.
Die IC50-Werte wurden als die Konzentration der behandelten und infizierten Zellen ermittelt, bei der 50% (ca. 10 Syncytien) der virusinduzierten Syncytien durch die Behandlung mit der erfindungsgemäßen Verbindung unterdrückt waren. […]

HIV-1-Protease = molecular target: T1, HIV-1-Protease (Human immunodeficiency virus type 1 group M subtype B, UniProt P04585); experiment: HIV-specific protease enzyme test (purified HIV protease, synthetic peptide substrate, RP-HPLC analysis of cleavage products); assay type: biochemical
T1 construct: Gereinigte HIV-Protease wurde mit synthetischem Peptid
Description: Es wurde überraschend gefunden, daß die Verbindungen der allgemeinen Formel (I) eine außerordentlich starke Wirkung gegen Retroviren besitzen. Dies wird mit einem HIV-spezifischen Protease-Enzymtest belegt.
Die Ergebnisse der unten aufgeführten Beispiele wurden nach dem in der folgenden Literaturangabe [vgl. Hansen, J., Billich, S., Schulze, T., Sukrow, S. and Mölling, K. (1988), EMBO Journal, Vol, 7, No. 6, pp. 1785 - 1791] beschriebenen HIV-Testsystem ermittelt: Gereinigte HIV-Protease wurde mit synthetischem Peptid, das eine Schnittstelle im Gag-Precursor-Protein imitiert und eine in vivo-Spaltstelle der HIV-Protease darstellt, inkubiert. Die entstandenen Spaltprodukte des synthetischen Peptids wurden über Reverse Phase High Performance Liquid Chromatography (RP-HPLC) analysiert. […]

[1] = purified HIV protease, synthetic peptide imitating a Gag precursor cleavage site
[2] = purified HIV protease, synthetic peptide imitating a Gag precursor cleavage site, concentration giving 50% inhibition of protease activity, read-out: HIV-1-Protease-Inhibition IC50

Row | SMILES | PBL IC95 (HIV) | IC50 (HIV) | IC50 (HIV-1-Protease) | HIV-1-Protease-Inhibition IC95 (HIV-1-Protease; [1]) | IC50 (HIV-1-Protease; [2])
1 | NC(=O)C[C@H](NC(=O)OC1CCOC1)C(=O)N[C@@H](Cc1ccccc1)[C@H](O)CN1[C@H](C(F)(F)F)C[C@@H]2CCC[C@@H]21 (stereo partly drawn) [Beispiel 1, (2S,3S)-3-(Tetrahydrofuran-3-yl-oxycarbonyl-L-asparaginyl)amino-1-[(S,S,S)-3-trifluormethyl-2-azabicyclo[3.3.0]octan-2-yl}-2-hydroxy-4-phenylbutan] | 3,5 x 10^-6 Mol/l | 2200 nM | 30 nM | 3,8 x 10^-7 Mol/l | 
2 | NC(=O)C[C@H](NC(=O)O[C@H]1CCOC1)C(=O)N[C@@H](Cc1ccccc1)[C@H](O)CN1[C@H](C(F)(F)F)C[C@@H]2CCC[C@@H]21 [Beispiel 2] | 3,5 x 10^-6 Mol/l | 2000 nM |  | 3,6 x 10^-9 Mol/l | 0.27 nM
3 | NC(=O)C[C@H](NC(=O)OC1CCS(=O)(=O)C1)C(=O)N[C@@H](Cc1ccccc1)[C@H](O)CN1[C@H](C(F)(F)F)C[C@@H]2CCC[C@@H]21 (stereo partly shown) [Beispiel 3] | 1,9 x 10^-6 Mol/l | 1200 nM |  |  | 9.5 nM
4 | NC(=O)C[C@H](NC(=O)OC1C=CS(=O)(=O)C1)C(=O)N[C@@H](Cc1ccccc1)[C@H](O)CN1[C@H](C(F)(F)F)C[C@@H]2CCC[C@@H]21 (stereo partly shown) [Beispiel 4] |  | > 16000 nM |  | 3,9 x 10^-9 Mol/l | 2.1 nM
5 | O=C(N[C@@H](Cc1ccccc1)[C@H](O)CN1[C@H](C(F)(F)F)C[C@@H]2CCC[C@@H]21)OC1CCOC1 (stereo partly drawn) [Beispiel 5, (2R,3S)-3-(Tetrahydrofuran-3-yl-oxycarbonyl)-amino-1-{(S,S,S)-3-trifluormethyl-2-azabicyclo[3.3.0]octan-2-yl}-2-hydroxy-4-phenylbutan] | 2,2 x 10^-5 Mol/l | 14000 nM | 4.1 nM | 4,7 x 10^-8 Mol/l | 
6 | O=C(N[C@@H](Cc1ccccc1)[C@H](O)CN1[C@H](C(F)(F)F)C[C@@H]2CCC[C@@H]21)O[C@H]1CCOC1 [Beispiel 6] | 1,3 x 10^-5 Mol/l | 2800 nM |  | 5,0 x 10^-8 Mol/l | 25 nM
7 | O=C(N[C@@H](Cc1ccccc1)[C@H](O)CN1[C@H](C(F)(F)F)C[C@@H]2CCC[C@@H]21)OC1CCS(=O)(=O)C1 (stereo partly shown) [Beispiel 7] |  | 6200 nM |  |  | 25 nM
8 | O=C(N[C@@H](Cc1ccccc1)[C@H](O)CN1[C@H](C(F)(F)F)C[C@@H]2CCC[C@@H]21)OC1C=CS(=O)(=O)C1 (stereo partly shown) [Beispiel 8] | >2e-05 mol/L | 17000 nM |  | 4,1 x 10^-8 Mol/l | 3.2 nM
